Source: publication PMC6115449, “Rapid and simple detection of Tamiflu-resistant influenza virus: Development of oseltamivir derivative-based lateral flow biosensor for point-of-care (POC) diagnostics” (Scientific Reports, 2018)

Key:
[1] = molecular target: WT NA (neuraminidase of pandemic H1N1 virus A/California/07/2009) (Influenza A virus (A/California/07/2009(H1N1)), UniProt C3W6G3); test: fluorescence NA activity assay (ex […] nm, em […] nm); type: biochemical; conditions: 37 °C, 60 min; whole virus
[2] = molecular target: WT NA (neuraminidase of pandemic H1N1 virus A/California/07/2009) (Influenza A virus (A/California/07/2009(H1N1)), UniProt C3W6G3); test: fluorescence NA inhibition assay (NA-Fluor, MUNANA); type: biochemical; conditions: MUNANA substrate; 30 min preincubation, 60 min reaction, 37 °C; whole virus 10^6 PFU/mL; ethyl ester prodrug tested as such

| Compound | fluorescence NA activity assay (ex 360 nm, em 450 nm) [1] | relative NA activity [2] |
| --- | --- | --- |
| CC(=O)N[C@H]1[C@H]([C@H](O)[C@H](O)CO)O[C@@](Oc2ccc3c(C)cc(=O)oc3c2)(C(=O)O)C[C@@H]1O [2-(4-methylumbelliferyl)-a-D-N-acetylneuraminic acid] | (MUNANA) was used as the fluorescent substrate to determine the NA enzymatic parameters |  |
| CCOC(=O)C1=C[C@@H](OC(CC)CC)[C@H](NC(C)=O)[C@@H](N)C1 [compound 3, oseltamivir phosphate] |  | increase in oseltamivir phosphate concentration was accompanied by its binding to WT NA and inhibition |
